What was measured:
[1] = test system: MLL fusion target genes (HOXA genes, MEIS1, MEF2C), MNDA; test: Quantitative RT-PCR of MLL fusion target genes and MNDA; assay type: cell-based; conditions: dose-dependent manner
Protocol: Total RNA was extracted from cells using the RNeasy mini kit (QIAGEN), and then 100-2000 ng of total RNA was reverse transcribed using the High Capacity cDNA Reverse Transcription Kit (Applied Biosystems) according to the manufacturer's protocol. Real-time PCR was performed using a CFX96 Real-Time PCR Detection System (Biorad). TaqMan Gene Expression Master Mix and TaqMan Gene Expression Assays were purchased from Thermo Fisher. Relative quantification of each gene transcript was carried out using the ΔΔCt method as described in the Biorad Real-Time PCR Applications Guide.

KOPN8 = test: MTT cell viability assay, KOPN8; assay type: cell-based, Human; conditions: KOPN8, 14 days of treatment
Protocol: (§1) Human leukemia cells were plated at 1×10^5 cells/ml in 24-well plates, treated with 0.25% DMSO or compounds and cultured at 37° C. for 7-14 days. Every four days, the volume corresponding to 1×10^5 cells of DMSO-treated cells was spun down and resuspended in fresh media with fresh compound. At day 0 and each four day interval, 100 μl aliquots of the cell suspension were transferred to 96-well plates in quadruplicates. The quadruplicate samples were incubated for 4 days at 37° C., and then an MTT cell proliferation assay kit (Roche) was used to measure viable cells. Absorbance was read at 570 nm using a PHERAstar (BMG) microplate reader.

[2] = test system: normal human hematopoietic hCD34+ cells; test: Toxicity to normal hematopoietic hCD34+ cells; assay type: cell-based
MV4;11 cells = test: Differentiation of MV4;11 cells (Cytospin/Wright-Giemsa staining); assay type: cell-based, Human; conditions: 7 days of treatment
Protocol: Cytospin/Wrigtht-Giemsa Staining
1×10^5 of MV4;11 cells treated with compounds or DMSO were harvested and placed in a Shandon EZ Single Cytofunnel (Thermo Fisher). Samples were centrifuged at 600 rpm for 5 min. The slides were air dried before staining with a Hema-3 kit (Thermo Fisher).

MOLM13 = test: MTT cell viability assay, MOLM13; assay type: cell-based, Human; conditions: MOLM13, 14 days of treatment
Protocol: as §1

K562 (CML cell line) = test: MTT cell viability assay, K562 control cell line; assay type: cell-based, Human; conditions: 14 days of treatment
Protocol: as §1

SEM cells = test: MTT cell viability assay, SEM; assay type: cell-based, Human; conditions: 14 days of treatment
Protocol: as §1

MV4;11 = test: MTT cell viability assay, MV4;11; assay type: cell-based, Human; conditions: MV4;11, 14 days of treatment
Protocol: as §1

[3] = target: T1, ASH1L SET-BAH construct (amino acids 2069-2833) (Homo sapiens, UniProt Q9NR48); test: ASH1L histone methyltransferase (HMT) assay; assay type: biochemical; conditions: read-out: IC50 value measured in histone methyltransferase (HMT) assay
T1 construct: ASH1L SET-BAH construct (amino acids 2069-2833); His tag (implied only by nickel-NTA purification); made in house; host or cells: E. coli BL21(DE3) T1R
Protocol: ASH1L SET protein was expressed as MOCR fusion proteins in E. coli BL21(DE3) T1R cells at 22° C. Transformed cells were lysed in buffer A containing 50 mM Tris (pH 7.5), 500 mM NaCl, 1 mM tris(2-carboxyethyl)phosphine (TCEP), and 20 mM imidazole. Cell debris was pelleted by centrifugation, and the supernatant was loaded on a column packed with nickel-nitrilotriacetic acid beads. The column was washed with buffer A and protein eluted with a 100 mL linear gradient up to buffer A containing 500 mM imidazole. The MOCR tag was cleaved with tobacco etch virus (TEV) protease during overnight dialysis against 50 mM Tris (pH 7.5), 100 mM NaCl, and 1 mM TCEP. Cleaved ASH1L was isolated from MOCR by repeating the nickel column purification and collecting ASH1L in the flow-through and low-imidazole fractions. ASH1L was further purified by gel filtration chromatography using a Superdex-75 column running in buffer B containing 50 mM Tris (pH 7.5), 100 mM NaCl, and 1 mM TCEP. ASH1L SET-PHD and SET-BAH proteins were purified similarly, with the following differences. […]
Chicken mono/dinucleosomes (HMT-35-179), chicken oligo nucleosomes (HMT-35-177), and HeLa nucleosomes (HMT-35-123) were purchased from Reaction Biology. […] The P81 squares were then dried for 1 h, added to 10 mL of Ultima Gold scintillation cocktail (PerkinElmer), and analyzed using a Beckman scintillation counter.

[4] = test system: MV4;11 xenotransplantation mouse models of MLL leukemia; test: MV4;11 xenotransplantation mouse model of MLL leukemia; assay type: in vivo, mice; conditions: i.p.
Protocol: Immunocompromised 8-10 week-old female NSG mice were used for in vivo efficacy studies in accordance with IACUC guidelines. Luciferase expressing human MV4;11 leukemia cells (MV4;11-luc) were engrafted intravenously via tail vein injection (1×10^7 cells/animal). Five days after transplantation mice were randomly assigned to a vehicle control or a compound treatment group (6-7 animals per group). […] Body weight was measured daily, while mean luminescence signal was measured at days 6, 13 and 19 post-transplantation in all mice. […]

SMILES: CC1CN(S(C)(=O)=O)CCC1n1cc(-c2cccc(C(N)=S)c2)c2ccc(N)cc21 (centres unmarked) [Compound 22]
- expression level of MNDA differentiation marker [1]: increase the expression level
- expression of MLL fusion target genes (HOXA genes, MEIS1, MEF2C) [1]: downregulates expression
- growth inhibition / proliferation, MTT assay (KOPN8): growth inhibition
- toxicity to normal human hematopoietic hCD34+ cells [2]: not toxic
- differentiation in MV4;11 cells (MV4;11 cells): induces differentiation
- growth inhibition / proliferation, MTT assay (MOLM13): growth inhibition

SMILES: CC(C)S(=O)(=O)N1CCC(n2cc(-c3cccc(C(N)=S)c3)c3ccc(CNc4nnc(N)s4)cc32)CC1 [Compound 34]
- proliferation, MTT cell viability assay (K562 (CML cell line)): but not control cell line K562
- growth inhibition / proliferation, MTT assay (KOPN8): inhibits proliferation
- proliferation, MTT cell viability assay (SEM cells): inhibits proliferation
- growth inhibition / proliferation, MTT assay (MOLM13): inhibits proliferation
- proliferation, MTT cell viability assay (MV4;11): inhibits proliferation

SMILES: COCCC(=O)Nc1ccc2c(-c3cccc(C(N)=S)c3)cn(C3CCN(S(C)(=O)=O)CC3)c2c1 [Compound 37]
- IC50 [3]: 750 nM

SMILES: Cl.NC(=S)c1cccc(-c2cn(C3CCN(S(=O)(=O)C(F)(F)F)CC3)c3cc(CNC(=O)C4CNC4)ccc23)c1 [Compound 59, N-((3-(3-carbamothioylphenyl)-1-(1-((trifluoromethyl)sulfonyl)piperidin-4-yl)-1H-indol-6-yl)methyl)azetidine-3-carboxamide hydrochloride salt]
- leukemia progression, bioluminescence level in mice ([4]; 7 days of treatment, 40 mg/kg, q.d.): slows down leukemia progression
- leukemia progression, flow cytometry of hCD45+ cells in spleen ([4]; 21 days of treatment, 25 mg/kg, b.i.d.): inhibits leukemia progression
